Where two headings read alike, the source gives them in different places.
Columns and labels:
[1] = system: actin, caspase 3, NF-kappabeta, Ikappabetaalpha; settings: except at 800 microM concentration
Protocol: Methods: Cells were plated at a density of 5×10^5 cells into a dish, and then maintained in 37° C. incubator (5% CO2) for 2 days. Prior to the assay, cells were rinsed twice with pre-warmed (37° C.) RPMI-1640 Medium (ATCC No. 30-2001; 10 mM HEPES; 1 mM sodium pyruvate; 2 mM L-glutamine; 4500 mg glucose/L; 1500 mg sodium bicarbonate/L). Cells were incubated with 2 mL culture medium in the absence or presence of lonidamine at different concentrations for 4 hours at 37° C. either under normoxia or hypoxia (oxygen level<0.1%). At the end of the incubation, the dish was placed on ice, and the cells were washed rapidly twice with cold PBS buffer (4° C.). For nuclear extracts, cells were lysed with buffer A (10 mM Tris, pH7.5; 1.5 mM MgCl2; 10 mM KCl and protease inhibitors and buffer C (0.5 M NaCl; 20 mM Tris pH7.5; 1.5 mM MgCl2; 20% glycerol and protease inhibitors), sequentially. The protease inhibitors used in the experiments were a cocktail of five protease inhibitors (500 mM AEBSF-HCl, 1 mg/ml Aprotinin, 1 mM E-64, 500 mM EDTA and 1 mM Leupeptin; Calbiochem NO 539131). For whole cell lysate, cells were lysed with 150 mM NaCl; 10 mM Tris ph7.5; 10 mM EDTA; 1% Triton X-100; 0.5% Deoxycholate, and protease inhibitors. The protein concentration was measured using a Bio-Rad protein assay. Equal amounts of protein were loaded on a SDS-PAGE gel. […]

[2] = system: HIF-1alpha; settings: PC3 cells, normoxic and hypoxic conditions, 4 hours; inhibition dose-dependent
Protocol: Methods: Cells were plated at a density of 5×10^5 cells into a dish, and then maintained in 37° C. incubator (5% CO2) for 2 days. Prior to the assay, cells were rinsed twice with pre-warmed (37° C.) RPMI-1640 Medium (ATCC No. 30-2001; 10 mM HEPES; 1 mM sodium pyruvate; 2 mM L-glutamine; 4500 mg glucose/L; 1500 mg sodium bicarbonate/L). […] At the end of the incubation, the dish was placed on ice, and the cells were washed rapidly twice with cold PBS buffer (4° C.). For nuclear extracts, cells were lysed with buffer A (10 mM Tris, pH7.5; 1.5 mM MgCl2; 10 mM KCl and protease inhibitors and buffer C (0.5 M NaCl; 20 mM Tris pH7.5; 1.5 mM MgCl2; 20% glycerol and protease inhibitors), sequentially. The protease inhibitors used in the experiments were a cocktail of five protease inhibitors (500 mM AEBSF-HCl, 1 mg/ml Aprotinin, 1 mM E-64, 500 mM EDTA and 1 mM Leupeptin; Calbiochem NO 539131). For whole cell lysate, cells were lysed with 150 mM NaCl; 10 mM Tris ph7.5; 10 mM EDTA; 1% Triton X-100; 0.5% Deoxycholate, and protease inhibitors. The protein concentration was measured using a Bio-Rad protein assay. Equal amounts of protein were loaded on a SDS-PAGE gel. […] The specific protein was detected using a colorimetric substrate, and the intensity of each protein was quantified using an NIH image system.

[3] = system: HIF-1alpha
Protocol: LNCaP is a citrate-producing cell (ATTC No. CRL-1740) while PC3 is citrate oxidizing cell (ATTC No. CRL-1435).
Methods: Cells were plated at a density of 5×10^5 cells into a dish, and then maintained in 37° C. incubator (5% CO2) for 2 days. Prior to the assay, cells were rinsed twice with pre-warmed (37° C.) RPMI-1640 Medium (ATCC No. 30-2001; 10 mM HEPES; 1 mM sodium pyruvate; 2 mM L-glutamine; 4500 mg glucose/L; 1500 mg sodium bicarbonate/L). Cells were incubated with 2 mL culture medium in the absence or presence of lonidamine at different concentrations for 4 hours at 37° C. either under normoxia or hypoxia (oxygen level<0.1%). […] For nuclear extracts, cells were lysed with buffer A (10 mM Tris, pH7.5; 1.5 mM MgCl2; 10 mM KCl and protease inhibitors and buffer C (0.5 M NaCl; 20 mM Tris pH7.5; 1.5 mM MgCl2; 20% glycerol and protease inhibitors), sequentially. The protease inhibitors used in the experiments were a cocktail of five protease inhibitors (500 mM AEBSF-HCl, 1 mg/ml Aprotinin, 1 mM E-64, 500 mM EDTA and 1 mM Leupeptin; Calbiochem NO 539131). For whole cell lysate, cells were lysed with 150 mM NaCl; 10 mM Tris ph7.5; 10 mM EDTA; 1% Triton X-100; 0.5% Deoxycholate, and protease inhibitors. The protein concentration was measured using a Bio-Rad protein assay. […]

[4] = system: advanced breast cancer; settings: daily divided oral dose of 600 mg, cited from earlier work
[5] = system: metastatic breast cancer; settings: addition of LND to epirubicin, factorial design; cited from earlier work

## O=C(O)c1nn(Cc2ccc(Cl)cc2Cl)c2ccccc12 [lonidamine, 1-(2,4-dichlorobenzyl)-1H-indazole-3-carboxylic acid]
[1]
  inhibition of protein levels of actin, caspase 3, NF-kappabeta, or Ikappabetaalpha: no detectable inhibition
[2]
  level of HIF-1alpha protein detected in nuclear (NE) and whole-cell extract (WCE) preparations: reduced the level of HIF-1alpha protein
[3]; HIF-1alpha accumulation, LNCaP versus PC3
  sensitivity of citrate-producing cells (LNCaP) to lonidamine treatment compared to citrate-oxidizing cells (PC3): greater sensitivity
[3]; LNCaP cells, hypoxic conditions (oxygen <0.1%), 4 hours, inhibition dose-dependent
  level of HIF-1alpha protein detected in nuclear (NE) and whole-cell extract (WCE) preparations: reduced the level of HIF-1alpha protein
[4]; 28 patients evaluable
  minor response: 11%
  partial response (4-24+ months): 11%
[4]; of 28 patients evaluable
  progressed: 20 patients
  stable disease (greater than 3 months): two
[5]
  time to progression in metastatic breast cancer patients treated with epirubicin: not improved
